Here are results for five compounds from patent publication US4076947A, “Cycloalkyl and cycloalkenyl prostaglandin congeners” (American Cyanamid Company, priority 1977, dated 1978).

Where two headings read alike, the source gives them in different places.

Holding throughout (assay type): in vivo
The test system of test [1] is ulcerogenic properties of indomethacin. The test is described as follows: Protection against indomethacin-induced gastric ulcers in rats (ulcer score). The following applies: total oral dose 6.25 mg./kg. in two halves; indomethacin 20 mg./kg. s.c.; scale 0-4; control score 3.0; lowering by 0.5 or more = active. An excerpt:
The novel compounds of the present invention have potential utility as hypotensive agents, anti-ulcer agents, agents for the treatment of gastric hypersecretion and gasteric erosion, bronchodilators, abortifacients, agents for the induction of labor, agents for the induction of menses, fertility-controlling agents, central nervous system regulatory agents, salt and water-retention regulatory agents, diuretics, fat metabolic regulatory agents, serum-cholesterol lowering agents, anti-inflammatory agents and as agents for the inhibition of platelet aggregation. […] The compounds of this invention provide protection against the ulcerogenic properties of indomethacin. A measure of this utility which also measures potential anti-ulcer properties is the assay which follows.
Rats were starved for 48 hours (water was given ad libitum). Indomethacin (20 mg./kg. of body weight) was administered by the subcutaneous route and one-half the dose of the test compound was administered by gavage at the same time. After three hours, the second half of the test compound was administered also by gavage. Five hours after the administration of indomethacin the animals were decapitated and the stomachs removed. The stomachs were washed with distilled water, blotted on gauze, cut along the larger curvature, and the contents rinsed with distilled water. […]

Test [2] relates to bronchospasms elicited by intravenous injections of histamine. The experiment in a line: Bronchodilator activity, Konzett procedure, against histamine. The note with it: three logarithmic cumulative intravenous doses, guinea pigs. Here is the method:
(§1) Bronchodilator activity was determined in guinea pigs against bronchospasms elicited by intravenous injections of 5-hydroxytryptamine, histamine or acetylcholine by the Konzett procedure. [See J. Lulling, P. Lievens, F. El Sayed and J. Prignot, Arzneimittel-Forschung, 18, 995 (1968)].
(§2) In the Table which follows bronchodilator activity for representative compounds of this invention against one or more of three spasmogenic agents is expressed as an ED50 determined from the results obtained with three logarithemic cumulative intravenous doses.

Test [3] deals with bronchospasms elicited by intravenous injections of 5-hydroxytryptamine. The test is described as follows: Bronchodilator activity, Konzett procedure, against 5-hydroxytryptamine. The following applies: Cavia porcellus, three logarithmic cumulative intravenous doses, guinea pigs, read-out: ED50, spasmogenic agent 5-hydroxytryptamine. Here is the method: as §1, §2
The test system of test [4] is bronchospasms elicited by intravenous injections of acetylcholine. The experiment in a line: Bronchodilator activity, Konzett procedure, against acetylcholine. The note with it: Cavia porcellus, three logarithmic cumulative intravenous doses, guinea pigs, read-out: ED50, spasmogenic agent acetyl choline. Here is the method: as §1, §2

With `O=C(O)CCCCCCC1C(=O)CC(O)C1C=CC(O)CC1CCCC1` (stereo not drawn) [d,l 9-oxo-11α,15-dihydroxy-17,20-methano-13-trans-prostenoic] [d,l 9-oxo-11α,15-dihydroxy-17,20-methano-13-trans-prostenoic acid], the “Score, Treated” value in test [1] is given as 1.5. Further, the “ED50, spasmogenic agent histamine” value in test [2] (listed as d,1-9-oxo-11α-15-dihydroxy-17,20-methano-13-trans-prostenoic acid) worked out at 0.000444 mg/kg.
With `O=C(O)CCCCCCC1C(=O)CC(O)C1C=CC(O)CC1CCCC1` (stereo not drawn) [d,l 9-oxo-11α,15-epi-dihydroxy-17,20-methano-13-trans-proste] [d,l 9-oxo-11α,15-epi-dihydroxy-17,20-methano-13-trans-prostenoic acid], the “Score, Treated” value in test [1] came out at 2.3. Further, the “ED50, spasmogenic agent histamine” value in test [2] (listed as d,1-9-oxo-11α-15-epi-dihydroxy-17,20-methano-13-trans-prostenoic acid) amounted to 0.042 mg/kg.
For `O=C(O)CCCCCCC1C(=O)CC(O)C1C=CC(O)CC1CCCC1` (stereo not drawn) [d,l 9-oxo-11α,15-dihydroxy-17,20-methano-13-trans-prostenoic acid], the median effective dose (ED50) in test [3] is 0.0018 mg/kg; in test [4] it was 0.0013 mg/kg.
As for `O=C(O)CCCCCCC1C(=O)C=CC1C=CC(O)CC1CCCC1` (stereo not drawn) [d,1-9-oxo-15-hydroxy-17,20-methano-10,13-trans-prostadienoic acid], the ED50 stood at 0.0546 mg/kg in test [3]; 0.041 mg/kg in test [2] (Cavia porcellus, iv, read-out: ED50, spasmogenic agent histamine); 0.292 mg/kg in test [4].
Take `O=C(O)CCCCCCC1C(=O)CC(O)C1C=CC(O)CC1CCCC1` (stereo not drawn) [d,l 9-oxo-11α,15-epi-dihydroxy-17,20-methano-13-trans-prostenoic acid]: the ED50 in test [3] (no power of ten printed) was 0.228 mg/kg.
